Data on twelve compounds can be found in ChEMBL document CHEMBL4052788, “Pocket detection and interaction-weighted ligand-similarity search yields novel high-affinity binders for Myocilin-OLF, a protein implicated in glaucoma” (Bioorg Med Chem Lett, 2017).

Each structure is given as a SMILES string.

The target in assay [1] is T1, Myocilin (Homo sapiens) (UniProt Q99972).
T1 sequence (whole entry): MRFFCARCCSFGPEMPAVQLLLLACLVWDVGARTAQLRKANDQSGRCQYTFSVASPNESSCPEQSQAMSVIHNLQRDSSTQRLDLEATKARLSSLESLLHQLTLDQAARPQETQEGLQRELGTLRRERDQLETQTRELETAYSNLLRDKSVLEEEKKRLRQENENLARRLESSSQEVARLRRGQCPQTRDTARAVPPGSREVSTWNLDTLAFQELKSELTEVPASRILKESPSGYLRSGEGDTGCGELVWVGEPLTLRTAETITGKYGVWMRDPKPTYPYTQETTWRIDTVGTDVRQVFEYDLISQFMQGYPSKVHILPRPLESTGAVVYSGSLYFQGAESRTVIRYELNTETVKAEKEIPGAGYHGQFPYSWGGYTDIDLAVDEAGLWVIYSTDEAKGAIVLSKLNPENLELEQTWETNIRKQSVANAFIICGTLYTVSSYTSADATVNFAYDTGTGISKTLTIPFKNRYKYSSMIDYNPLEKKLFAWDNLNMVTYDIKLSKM
Put plainly: Binding affinity myocilin-OLF domain (unknown origin) assessed as change in melting temperature by Sypro Orange dye-based DSF assay.

Assay [2] has as its target T2, Myocilin (Homo sapiens, UniProt Q99972).
T2 sequence (Q99972 whole entry): T1 sequence (whole entry)
Put plainly: Binding affinity myocilin-OLF domain (unknown origin) by Sypro Orange dye-based DSF assay. To be noted: read-out: Kd(app).

The target of assay [3] is T1, Myocilin (Homo sapiens). Put plainly: Binding affinity myocilin-OLF domain (unknown origin) assessed as change in melting temperature by SRP assay.
In assay [4] the target is T2, Myocilin. Put plainly: Binding affinity myocilin-OLF domain (unknown origin) by SRP assay.

`Nc1nc(N)c(/N=N/c2ccc(C(=O)O)cc2)c(N)n1`: the ΔTm on Myocilin (Homo sapiens) [1] was 1.78 °C. Moreover, the Kd on Myocilin [2] is 190 µM.
With `CN(C)c1ccc(/C=C/C(=O)c2cc(Cl)ccc2O)cc1`, the ΔTm on Myocilin (Homo sapiens) [1] is 1.5 °C. In addition, the Kd on Myocilin [2] turned out to be 220 µM.
On to `O=C(/C=C/c1ccc(O)c(O)c1)c1ccccc1O`, for which the ΔTm on Myocilin (Homo sapiens) [1] came to 16.4 °C. Moreover, the Kd on Myocilin [2] was 0.099 µM.
Consider `Cc1cc(N(CCCl)CCCl)ccc1/C=N/NC(=O)Cc1cc(=O)oc2cc(O)ccc12`, for which the ΔTm at Myocilin (Homo sapiens) [1] stood at 1.6 °C. The Kd on Myocilin [2] was 210 µM.
Regarding `O=C1Nc2ccc(I)cc2C1=Cc1cc(Br)c(O)c(Br)c1` [GW305074X], the ΔTm at Myocilin (Homo sapiens) [3] was found to be 0.2 °C. For the same compound, the Kd on Myocilin [4] turned out to be 33.5 µM.
With `Cc1ccc(C(C)C)cc1NC(=O)Nc1ccc([N+](=O)[O-])cc1`, at Myocilin (Homo sapiens) [1], the ΔTm worked out at 6.3 °C. For the same compound, the Kd at Myocilin [2] is 11 µM.
For `COc1cc(C(=O)C(=O)c2ccc(O)c(OC)c2)ccc1O`, in that order: 0.91 °C and 300 µM.
In the case of `O=C(Cn1ccc(=O)[nH]c1=O)Nc1ccc(C(=O)O)c(O)c1`, the ΔTm at Myocilin (Homo sapiens) [1] is 1.96 °C. Further, the Kd at Myocilin [2] is 200 µM.
With `COc1cccc(NC(S)=Nc2ccc(O)cc2)c1`, on Myocilin (Homo sapiens) [1], the ΔTm was 32 °C.
Take `O=c1cc(-c2ccc(O)cc2)oc2cc(O)cc(O)c12` [APIGENIN]: on Myocilin (Homo sapiens) [3], the ΔTm was -0.3 °C. The same compound had a Kd on Myocilin [4] of 41.6 µM.
Regarding `O=C(Nc1ccc(Oc2ccc(NC(=O)Nc3ccc([N+](=O)[O-])cc3)cc2)cc1)Nc1ccc([N+](=O)[O-])cc1`, at Myocilin (Homo sapiens) [1], the ΔTm came to 11.2 °C. In addition, on Myocilin [2], the Kd came to 0.65 µM.
Consider `O=C1c2ccccc2C(=O)C1C(c1ccc([N+](=O)[O-])cc1)C1C(=O)c2ccccc2C1=O`, for which the ΔTm at Myocilin (Homo sapiens) [1] came to 2.02 °C. On Myocilin [2], the Kd was found to be 170 µM.
